Like-named read-outs stand apart in the source and are kept apart here.
What was measured:
[1] = cited from earlier work
[2] = tested on: prostate cancer cell lines (C-42, DU-145, and PC-3 cells); test: MTT assay, antiproliferative efficacy, results stated for all three cell lines together; format: cell-based; conditions: 72 hours; non-encapsulated, alone; RSV 20, 30, 40 µM; CL 0.250, 0.375, 0.5 µM
Protocol: Finally, in vitro cytotoxicity studies were performed in order to evaluate whether co-administration of encapsulated RSV and CL would have allowed an increase in the antiproliferative efficacy compared to single molecules, both as such and formulated in nanosystems, on androgen-dependent (C-42 cells) and androgen-independent (DU-145 and PC-3 cells) prostate cancer cell lines (PCa).
The antiproliferative efficacy of the NPs of the present invention was evaluated using the MTT assay (3-[4,5-dimethylthiazol-2-yl]-2,5-diphenyl tetrazolium bromide) applying the procedure described in Sanna V., et al., Resveratrol-loaded nanoparticles based on poly(epsilon-caprolactone) and poly(D,L-lactic-co-glycolic acid)-poly(ethylene glycol) blend for prostate cancer treatment. Mol. Pharm. 2013 Oct 7;10(10):3871-81, which, as a result, is included herein as a reference in its entirety.
Each experiment was repeated 3 or 5 times (n = 3 or 5).

CC1=C(O)C(=O)C=C2C1=CC=C1[C@@]2(C)CC[C@@]2(C)[C@@H]3C[C@](C)(C(=O)O)CC[C@]3(C)CC[C@]12C [CL, Celastrol]
solubility in water ([1]; result in words): insoluble

Oc1ccc(/C=C/c2cc(O)cc(O)c2)cc1 [RSV, trans-3,5,4'-trihydroxy-stilbene]
viability [2]: reduction of viability that is generally dose-dependent
solubility in water [1]: 3 mg/100 mL

Reference: patent publication EP3565534B1, “POLYMERIC NANOPARTICLES ENCAPSULATING A COMBINATION OF NATURAL BIO-ACTIVES TRANS-RESVERATROL(RSV) AND CELASTROL(CL), A PROCESS FOR THE PREPARATION AND USE THEREOF IN THE TREATMENT OF PROSTATE CANCER” (Università degli Studi di Sassari, priority 2017, dated 2018)
